Results as given in US20250197368A1 (priority 2020, published 2025).
Where two headings read alike, the source gives them in different places.

Legend:
human α2β3γ2 GABAARs = experiment: In vitro electrophysiological recording assay (automated patch-clamp), α2-GABAAR relative efficacy; assay type: cell-based; conditions: % efficacy normalised to diazepam; GABA EC10-20; concentration generally >= 100 times Ki
Protocol: The efficacy of modulators was evaluated using the automated patch-clamp platforms QPatch16 (Sophion, Copenhagen, Denmark) or SyncroPatch 384PE (Nanion, Germany).
For QPatch electrophysiology testing L(tk^−) cells stably expressing human α1β3γ2, α2β3γ2, α3β3γ2, α5β3γ2 GABAARs were used. HEK293 cells stably expressing human α1β3γ2L, α2β3γ2L, α3β3γ2L and α5β3γ2L GABAARs were used for the SyncroPatch 384PE experiments.
All experiments were carried out at room temperature (20-22° C.) using a standard whole cell procedure and physiological solutions. Gigaseals were formed upon execution of a combined suction/voltage protocol with subsequent increased suction leading to the whole-cell configuration.
The currents recorded were acquired at either 1 KHz or 2 KHz and filtered using a Bessel filter. Whole-cell currents were measured at a holding potential of-65 mV (QPatch) or −80 mV (SyncroPatch).
For QPatch experiments, the extracellular solution contained of: 145 mM NaCl, 4 mM KCl, 1 mM MgCl2, 2 mM CaCl2), 10 mM HEPES, 10 mM D-glucose (pH 7.4), and the intracellular solution consisted of: 96 mM KCl, 28 mM CsCl, 25 mM KOH, 4.3 mM CaCl2), 1.4 mM MgCl2, 10 mM EGTA, 10 mM HEPES, 3 mM MgATP (pH 7.2). The osmolarities of the extracellular and intracellular solutions were 305 and 295 mOsm respectively.
For SyncroPatch experiments, the extracellular recording solution contained: 140 mM NaCl, 4 mM KCl, 2 mM CaCl2), 1 mM MgCl2, 10 mM HEPES, 5 mM glucose (pH 7.4 with NaOH and osmolarity of c. 300-310 mOsm). The intracellular recording solution consisted of: 90 mM KCl, 50 mM KF, 1.5 mM MgCl2, 11.1 mM EGTA and 10 mM HEPES (pH 7.2 with KOH and osmolarity of c. 300 mOsm). 2 mM of NaATP was added to the intracellular solution on the day of testing.
The effects of modulators were evaluated in the presence of a submaximal GABA concentration, giving typically less than 30% activation of the response elicited by a saturating GABA concentration. To check and ensure baseline current stability before compound addition, two to five consecutive applications of GABA EC10-20 separated by wash steps were performed before compound addition. The test compound was applied 1 min at least prior to co-application with GABA EC10-20. Following a further wash step, a saturating concentration of GABA was applied at the end of each recording, allowing the accurate evaluation for each cell of the percentage baseline activation elicited by the submaximal GABA applied.
The compounds were first dissolved in DMSO as a 10 mM stock and then further diluted to the testing concentrations so that the final DMSO concentration in the extracellular recording solution was 0.1% (QPatch) or 0.2% (SyncroPatch).
The % efficacy of modulators was determined from the GABA elicited currents recorded in the presence and absence of the test compound, using the formula:
[((compound peak current−leak)−(GABA peak current-leak))/(GABA peak current−leak)]*100,
where ‘leak’ is the leak baseline current at the holding potential, ‘compound peak current’ is the current elicited by co-application of compound and GABA, and ‘GABA peak current’ is the current elicited by GABA alone at the last GABA application before compound addition. The results were presented as ‘relative efficacy’ for each compound generally at a concentration equal or higher than 100 times their determined Ki. The relative efficacy of a compound was calculated by normalising its % efficacy to the corresponding % efficacy of diazepam that was separately determined.

[1] = target: human α2β3γ2 GABAARs (benzodiazepine site) (Homo sapiens (Human), UniProt P18507+P47869); experiment: In vitro radioligand binding assay ([3H]Ro15-1788 displacement), α2-GABAAR Ki
Protocol: The affinity (Ki) of compounds for the benzodiazepine site of human recombinant GABAARs was measured by their ability to inhibit the binding of the selective benzodiazepine antagonist [^3H]Ro15-1788 ([^3H] flumazenil).
Mouse L(tk^−) cells stably expressing human α1β3γ2, α2β3γ2, α3β3γ2, α5β3γ2 GABAARs were generated by transfection of the individual subunits in the dexamethasone-inducible expression vector pMSGneo in mouse L(tk^−) cells (Hadingham et al., 1993, Mol. Pharmacol. 43:970-975 and 1993, Mol. Pharmacol. 44:1211-1218).
L(tk^−) cells stably expressing human α1β3γ2, α2β3γ2, α3β3γ2, α5β3γ2 GABAARs were maintained in DMEM F12 medium supplemented with 10% Foetal Bovine Serum, 1% Penicillin/Streptomycin and 1 mg/mL Geneticin G418 in an incubator at 37° C. with a humidified atmosphere with 5% CO2. Dexamethasone was added to the culture medium to induce GABAAR expression.
L(tk−) cells were harvested and membranes were prepared for each receptor combination in either TE buffer (10 mM Tris·CI/0.1 mM EDTA, pH 7.5) or phosphate buffer (K2PO4 10 mM, pH 7.0) (Hadingham et al. (1992) Proc. Natl. Acad. Sci. USA; 89 (14): 6378-82). Protein concentration, receptor expression and the Kd of [^3H]Ro15-1788 were determined before Ki value of the compounds were evaluated. For Kd evaluation, saturation binding curves were obtained by incubating membrane with various concentrations of [^3H]Ro15-1788 (82.5 Ci/mM), with nonspecific binding measured in the presence of 1-3 μM TP003.
For Ki evaluation, cell membranes were incubated with 4 nM [^3H]Ro15-1788 along with a range of concentrations of test compound. Nonspecific binding was determined using 1-3 μM TP003. All incubations were performed for 1 hour at 4° C. in assay buffer. The total assay volume was 0.5 mL, containing 40 μg/well α1β3γ2, 30 μg/well α2β3γ2, 40 μg/well α3β3γ2 and 30 μg/well for α5β3γ2 of membrane protein. Incubations were terminated by filtration and washing with ice cold Tris-HCl buffer (50 mM, pH=7.4) over Whatman GF/B filters and the radioactivity of the filters was measured using liquid scintillation counting.
The % inhibition of [^3H]Ro15-1788 binding was plotted as a function of compound concentration and the IC50 calculated. From the IC50, the affinity (Ki) was calculated using the method of Cheng and Prusoff using the Kd values obtained for [^3H]Ro15-1788.

[2] = L(tk-) cell membranes, 4 nM [3H]Ro15-1788, read-out: α2-GABAAR Ki

human α2β3γ2 GABAARs (benzodiazepine site), sequence (P47869 29-451): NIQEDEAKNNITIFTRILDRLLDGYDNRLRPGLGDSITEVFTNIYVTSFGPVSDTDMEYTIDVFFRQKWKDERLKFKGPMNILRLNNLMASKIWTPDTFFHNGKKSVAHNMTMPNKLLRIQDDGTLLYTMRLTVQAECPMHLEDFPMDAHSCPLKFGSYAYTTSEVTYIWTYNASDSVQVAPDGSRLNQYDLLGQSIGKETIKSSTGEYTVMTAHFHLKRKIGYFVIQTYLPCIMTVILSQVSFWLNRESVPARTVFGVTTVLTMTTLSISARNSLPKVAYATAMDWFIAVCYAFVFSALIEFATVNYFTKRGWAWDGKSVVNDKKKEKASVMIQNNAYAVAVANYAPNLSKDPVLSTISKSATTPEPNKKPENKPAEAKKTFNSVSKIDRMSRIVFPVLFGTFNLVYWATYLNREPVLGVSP
human α2β3γ2 GABAARs (benzodiazepine site), sequence (P28472 26-473 partner): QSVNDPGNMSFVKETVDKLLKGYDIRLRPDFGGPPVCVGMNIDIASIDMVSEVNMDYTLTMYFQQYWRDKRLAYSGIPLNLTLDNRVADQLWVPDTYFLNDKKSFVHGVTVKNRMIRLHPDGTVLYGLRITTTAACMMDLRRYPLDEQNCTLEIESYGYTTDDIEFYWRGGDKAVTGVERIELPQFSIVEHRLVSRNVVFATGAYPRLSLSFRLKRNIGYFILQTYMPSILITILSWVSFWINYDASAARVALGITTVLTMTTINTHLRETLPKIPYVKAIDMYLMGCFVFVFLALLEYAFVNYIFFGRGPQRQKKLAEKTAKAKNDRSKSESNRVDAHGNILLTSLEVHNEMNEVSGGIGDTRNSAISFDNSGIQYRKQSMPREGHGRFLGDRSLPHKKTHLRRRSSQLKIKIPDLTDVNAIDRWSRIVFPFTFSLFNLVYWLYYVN
human α2β3γ2 GABAARs (benzodiazepine site), sequence (P18507 40-475): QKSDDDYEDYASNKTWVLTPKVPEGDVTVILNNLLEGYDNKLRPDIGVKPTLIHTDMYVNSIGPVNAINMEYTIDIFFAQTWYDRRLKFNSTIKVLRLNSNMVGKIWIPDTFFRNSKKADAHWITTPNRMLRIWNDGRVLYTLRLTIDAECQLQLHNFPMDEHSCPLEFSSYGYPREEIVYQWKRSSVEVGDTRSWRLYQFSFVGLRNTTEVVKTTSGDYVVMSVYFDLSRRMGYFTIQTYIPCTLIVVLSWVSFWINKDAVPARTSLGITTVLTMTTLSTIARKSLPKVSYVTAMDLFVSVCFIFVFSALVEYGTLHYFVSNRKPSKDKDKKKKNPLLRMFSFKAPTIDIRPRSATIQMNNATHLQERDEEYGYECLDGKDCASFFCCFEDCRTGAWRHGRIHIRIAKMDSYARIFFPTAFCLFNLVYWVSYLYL

Structure (SMILES)	α2-GABAAR Relative Efficacy (vs. Diazepam) (human α2β3γ2 GABAARs)	Ki [1]	Ki [1, 2]
CCCNC(=O)c1c(N)c2cccc(-c3cccc(OC(F)(F)F)n3)c2[nH]c1=O [Example 1, 4-Amino-2-oxo-N-propyl-8-[6-(trifluoromethoxy)-2-pyridyl]-1H-quinoline-3-carboxamide]	0.13	0.79 nM	
CCCNC(=O)c1c(N)c2cccc(-c3cccc(C(F)F)n3)c2[nH]c1=O [Example 3, 4-Amino-8-[6-(difluoromethyl)-2-pyridyl]-2-oxo-N-propyl-1H-quinoline-3-carboxamide]	0.29	1.99 nM	
CCCNC(=O)c1c(N)c2cccc(-c3ncc(F)cc3F)c2[nH]c1=O [Example 6, 4-Amino-8-(3,5-difluoro-2-pyridyl)-2-oxo-N-propyl-1H-quinoline-3-carboxamide]	0.10	0.87 nM	
CCCNC(=O)c1c(N)c2cccc(-c3nc(OCC)ccc3F)c2[nH]c1=O [Example 9, 4-Amino-8-(6-ethoxy-3-fluoropyridin-2-yl)-2-oxo-N-propyl-1,2-dihydroquinoline-3-carboxamide]	0.23	0.25 nM	
CCCNC(=O)c1c(N)c2cccc(-c3nc(COC)ccc3F)c2[nH]c1=O [Example 10, 4-Amino-8-(3-fluoro-6-(methoxymethyl)pyridin-2-yl)-2-oxo-N-propyl-1,2-dihydroquinoline-3-carboxamide]	0.22	1.5 nM	
CCCNC(=O)c1c(N)c2cccc(-c3nc(CO)ccc3C)c2[nH]c1=O [Example 12, 4-Amino-8-(6-(hydroxymethyl)-3-methylpyridin-2-yl)-2-oxo-N-propyl-1,2-dihydroquinoline-3-carboxamide]	0.38	8.17 nM	
CCCNC(=O)c1c(N)c2cccc(-c3cnccc3C)c2[nH]c1=O [Example 15, 4-Amino-8-(4-methylpyridin-3-yl)-2-oxo-N-propyl-1,2-dihydroquinoline-3-carboxamide]	0.17	4.09 nM	
CCCNC(=O)c1c(N)c2cccc(-c3cnccc3F)c2[nH]c1=O [Example 16, 4-Amino-8-(4-fluoropyridin-3-yl)-2-oxo-N-propyl-1,2-dihydroquinoline-3-carboxamide]	0.34	24.1 nM	
CNC(=O)c1c(N)c2cccc(-c3cnccc3OC)c2[nH]c1=O [Example 55, 4-Amino-8-(4-methoxy-3-pyridyl)-N-methyl-2-oxo-1H-quinoline-3-carboxamide]			159 nM
COc1ccncc1-c1cccc2c(N)c(C(=O)NC3CC3)c(=O)[nH]c12 [Example 57, 4-Amino-N-cyclopropyl-8-(4-methoxy-3-pyridyl)-2-oxo-1H-quinoline-3-carboxamide]		73.3 nM	
COc1ccncc1-c1cccc2c(N)c(C(=O)NC3COC3)c(=O)[nH]c12 [Example 58, 4-Amino-8-(4-methoxy-3-pyridyl)-N-(oxetan-3-yl)-2-oxo-1H-quinoline-3-carboxamide]			154 nM
COc1ccncc1-c1cccc2c(N)c(C(=O)NCC(F)F)c(=O)[nH]c12 [Example 61, 4-Amino-N-(2,2-difluoroethyl)-8-(4-methoxy-3-pyridyl)-2-oxo-1H-quinoline-3-carboxamide]			107 nM
COc1ccncc1-c1cccc2c(N)c(C(=O)NCC(C)(F)F)c(=O)[nH]c12 [Example 65, 4-Amino-N-(2,2-difluoropropyl)-8-(4-methoxy-3-pyridyl)-2-oxo-1H-quinoline-3-carboxamide]		55.2 nM	
COc1ccncc1-c1cccc2c(N)c(C(=O)NCCCO)c(=O)[nH]c12 [Example 66, 4-Amino-N-(3-hydroxypropyl)-8-(4-methoxy-3-pyridyl)-2-oxo-1H-quinoline-3-carboxamide]		18.6 nM	
Nc1c(C(=O)NC2CC2)c(=O)[nH]c2c(-c3cnccc3OC(F)F)cccc12 [Example 70, 4-Amino-N-cyclopropyl-8-[4-(difluoromethoxy)-3-pyridyl]-2-oxo-1H-quinoline-3-carboxamide]			> 500 nM
COCCNC(=O)c1c(N)c2cccc(-c3cnccc3OC(F)F)c2[nH]c1=O [Example 71, 4-Amino-8-[4-(difluoromethoxy)-3-pyridyl]-N-(2-methoxyethyl)-2-oxo-1H-quinoline-3-carboxamide]			> 500 nM
Cc1nn(C)cc1-c1cccc2c(N)c(C(=O)NCC3COC3)c(=O)[nH]c12 [Example 72, 4-Amino-8-(1,3-dimethyl-1H-pyrazol-4-yl)-N-(oxetan-3-ylmethyl)-2-oxo-1,2-dihydroquinoline-3-carboxamide]			> 500 nM
Cc1nn(C)cc1-c1cccc2c(N)c(C(=O)NCCC#N)c(=O)[nH]c12 [Example 74, 4-Amino-N-(2-cyanoethyl)-8-(1,3-dimethylpyrazol-4-yl)-2-oxo-1H-quinoline-3-carboxamide]			> 500 nM
Cc1nn(C)cc1-c1cccc2c(N)c(C(=O)NCCCN(C)C)c(=O)[nH]c12 [Example 75, 4-Amino-N-[3-(dimethylamino)propyl]-8-(1,3-dimethylpyrazol-4-yl)-2-oxo-1H-quinoline-3-carboxamide]			171 nM
CCCNC(=O)c1c(N)c2cccc(-c3cnccc3OC)c2n(C)c1=O [Example 77, 4-Amino-8-(4-methoxy-3-pyridyl)-1-methyl-2-oxo-N-propyl-quinoline-3-carboxamide]		2.77 nM	
CCCNC(=O)c1c(N)c2ccnc(-c3cnccc3OC)c2[nH]c1=O [Example 84, 4-Amino-8-(4-methoxypyridin-3-yl)-2-oxo-N-propyl-1,2-dihydro-1,7-naphthyridine-3-carboxamide]		75.5 nM	
